Assay: molar heat capacity at constant pressure
Conditions: 101.33 kPa, Crystal 2, Small (less than 1 g) adiabatic calorimetry

CCCC[N+](CCCC)(CCCC)CCCC.[I-] [tetrabutylammonium iodide]
Conditions | molar heat capacity at constant pressure [J/K/mol]
5 K | 0.875
5.6 K | 0.546
5.7 K | 0.62
5.82 K | 0.735
5.88 K | 0.786
6.15 K | 1.05
6.33 K | 1.24
6.6 K | 1.54
6.69 K | 1.67
6.89 K | 1.87
6.98 K | 2.05
7.07 K | 2.12
7.26 K | 2.39
7.35 K | 2.49
7.45 K | 2.68
7.54 K | 2.82
7.74 K | 3.02
8.03 K | 3.55
8.14 K | 3.66
8.24 K | 3.76
8.45 K | 4.16
8.55 K | 4.34
8.66 K | 4.58
8.77 K | 4.69
8.87 K | 4.87
9.09 K | 5.28
9.2 K | 5.43
9.42 K | 5.78
9.53 K | 5.96
9.76 K | 6.52
9.87 K | 6.76
9.98 K | 6.85
10 K | 6.91
10.26 K | 7.37
10.71 K | 8.33
11.16 K | 9.2
11.61 K | 10.3
12.08 K | 11.3
12.55 K | 12.5
13.04 K | 13.6
13.53 K | 14.9
14.03 K | 16
14.54 K | 17.2
15.05 K | 18.56
15.57 K | 19.98
16.09 K | 21.47
16.61 K | 22.94
17.14 K | 24.46
17.67 K | 25.9
18.2 K | 27.48
18.76 K | 29
19.31 K | 30.77
19.85 K | 32.46
20 K | 32.91
20.98 K | 35.93
22.55 K | 40.49
24.16 K | 45.21
25.78 K | 49.77
27.42 K | 54.6
29.07 K | 59.44
30 K | 62.21
30.73 K | 64.36
32.39 K | 69.26
34.07 K | 74.01
35.76 K | 78.8
37.45 K | 83.46
39.15 K | 87.9
40 K | 90.12
40.85 K | 92.36
42.56 K | 96.45
44.26 K | 100.6
45.97 K | 104.7
47.72 K | 108.8
49.44 K | 112.6
50 K | 113.7
51.16 K | 116.5
52.88 K | 120.1
54.61 K | 123.5
56.34 K | 127.3
58.07 K | 131
59.8 K | 134.9
60 K | 135.4
61.53 K | 138.8
63.27 K | 142.4
65.01 K | 146.4
66.75 K | 150
68.49 K | 153.6
70 K | 156.1
72.19 K | 159.7
74.35 K | 163.7
76.49 K | 167.2
78.63 K | 170.6
80 K | 172.8
80.76 K | 173.7
82.88 K | 177.6
84.02 K | 179.7
85.33 K | 181.8
87.83 K | 185.8
89.91 K | 189.2
90 K | 189.7
91.99 K | 192.3
94.06 K | 195.1
96.13 K | 198.4
98.18 K | 201.3
100 K | 204.1
100.24 K | 204.2
102.48 K | 208.5
104.92 K | 211.3
107.37 K | 214.8
109.82 K | 217.8
110 K | 217.9
112.27 K | 220.9
114.75 K | 224.1
117.24 K | 227.3
119.7 K | 230.1
120 K | 230.8
122.11 K | 233.2
124.58 K | 236.3
127.05 K | 239.3
129.51 K | 242.1
130 K | 242.9
131.98 K | 245.1
134.46 K | 248.1
136.93 K | 251
139.4 K | 253.8
140 K | 254.4
141.88 K | 256.5
144.36 K | 259.3
146.84 K | 262.3
149.32 K | 264.6
150 K | 265.4
151.8 K | 267.5
154.28 K | 270.5
156.76 K | 273
159.25 K | 275.4
160 K | 276.3
161.68 K | 277.9
164.17 K | 280.8
166.66 K | 283.6
169.14 K | 286.4
170 K | 287.1
171.63 K | 288.8
174.12 K | 291.3
179.09 K | 296.7
180 K | 297.8
181.58 K | 299.2
184.06 K | 302
186.55 K | 304.6
189.03 K | 307.5
190 K | 308.6
191.52 K | 310
194 K | 312.6
196.48 K | 315.8
198.96 K | 318.2
200 K | 319.4
201.37 K | 321.1
203.83 K | 324
206.3 K | 326.7
208.78 K | 329.1
210 K | 330.4
211.25 K | 332.3
213.73 K | 334
216.22 K | 337
218.7 K | 339.9
220 K | 341.7
221.19 K | 342.7
223.68 K | 345.9
226.17 K | 348.6
228.67 K | 351.6
230 K | 353.2
231.16 K | 354.6
233.66 K | 357.7
235.16 K | 359.3
237.7 K | 362.3
238.66 K | 363.9
240 K | 365.1
241.12 K | 366.7
243.63 K | 369.8
246.14 K | 372.6
248.65 K | 375.9
250 K | 377.4
251.17 K | 379.2
253.68 K | 382.1
256.2 K | 385.3
258.72 K | 388.5
260 K | 390.2
261.24 K | 392
263.76 K | 395.2
266.29 K | 398.2
268.81 K | 401.5
270 K | 403.3
271.34 K | 405
273.15 K | 407.6
273.87 K | 408.1
276.4 K | 411.5
278.93 K | 415
280 K | 416.9
281.43 K | 418.6
283.96 K | 421.7
286.49 K | 425.5
289.02 K | 429.5
290 K | 430.8
291.54 K | 433.4
294.07 K | 436.3
296.58 K | 439.9
298.15 K | 442.5
299.1 K | 443.6
300 K | 445.2
301.98 K | 449.2
305.32 K | 453.3
308.64 K | 459.7
310 K | 460.1
311.93 K | 464
315.18 K | 468.4
318.42 K | 473.1
320 K | 475.7
321.63 K | 477.8
324.82 K | 483
327.99 K | 488.3
330 K | 492.4
331.13 K | 493.9
334.25 K | 499.5
337.34 K | 505.8
340 K | 511
340.41 K | 511.9
343.45 K | 518.1
346.47 K | 524.6
349.45 K | 530.9
350 K | 532.3
352.15 K | 537.6

From the NIST ThermoML archive (doi:10.1016/j.tca.2008.10.017)
